Data taken from patent US20240262845A1, “PYRIDINIUM SALTS, METHODS OF MAKING, AND METHODS OF USE” (UNIVERSITY OF WYOMING, priority 2023, published 2024).
Structures can show the parent of a compound that is named as a salt.

Experiments:
[1] = molecular target: T1, thioredoxin (Escherichia coli, UniProt P0AA25); test: Photochemical labeling of thioredoxin with pyridinium salt (General Procedure B, LC/MS); type: biochemical; details: trypsin digest
T1 construct: purchased Sigma Aldrich; host or cells: E. coli
T1 sequence (P0AA25 whole entry): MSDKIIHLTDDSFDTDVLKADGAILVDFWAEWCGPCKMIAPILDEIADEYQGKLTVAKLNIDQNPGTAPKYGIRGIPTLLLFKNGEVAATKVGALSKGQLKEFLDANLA
Description: (§1) General Procedure B: Photochemical Irradiation of Peptides and Proteins: To a 2 mL Pyrex LC/MS vial (Thermo model #03-391-39) were sequentially added solutions containing the desired biomolecule, glutathione (GSH), pyridinium salt, and ammonium acetate (NH4OAc). The resulting solution was diluted to a final volume of 500 μL and then sparged using nitrogen for a minimum of 30 minutes prior to irradiation. The actively sparging solution was then placed in an EvoluChem™ PhotoRedOx Box photoreactor that was equipped with a Kessil, PR160 427 nm LED Lamp and was then irradiated (100% lamp intensity) for the designated time at room temperature while maintaining active sparging. The resultant reaction mixture was then analyzed directly by LC/MS. Analysis of labeling outcomes using LC/MS was performed either by extracted ion chromatogram intensities (method A) or by integrating the area under the peaks associated with peptide content (method B). These values were totaled, and estimated percentages were assigned according to relative intensities of peaks or ion counts.
Labeling of Thioredoxin with Pyridinium Salt 2a (Thioredoxin-2a Conjugate). […] The reaction mixture was directly analyzed by LC/MS using method A and was estimated to have proceeded with 93% conversion and a 14.5:1 mono:di labeled ratio and 3% glutathionylation of all protein content. […]

[2] = molecular target: T2, bovine carbonic anhydrase II (Bos taurus, UniProt P00921); test: Photochemical labeling of bovine carbonic anhydrase II with pyridinium salt (General Procedure B, LC/MS); type: biochemical; details: trypsin digest
T2 construct: Carbonic Anhydrase Isozyme II from bovine erythrocytes; purchased Sigma Aldrich; host or cells: bovine erythrocytes
T2 sequence (P00921 whole entry): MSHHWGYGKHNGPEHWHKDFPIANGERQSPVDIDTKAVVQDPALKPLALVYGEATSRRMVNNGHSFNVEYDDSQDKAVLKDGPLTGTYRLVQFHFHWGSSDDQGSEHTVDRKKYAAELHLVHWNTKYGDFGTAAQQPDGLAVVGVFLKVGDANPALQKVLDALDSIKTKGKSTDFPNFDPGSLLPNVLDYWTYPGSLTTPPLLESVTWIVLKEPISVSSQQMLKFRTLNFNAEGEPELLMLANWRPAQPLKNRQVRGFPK
Description: as §1, with “Analysis of labeling outcomes using LC/MS was performed either by extracted ion chromatogram intensities (method A) or by integrating the area under the peaks associated with peptide content (method B). These values were totaled, and estimated percentages were assigned according to relative intensities of peaks or ion counts.” left out
Labeling of Bovine Carbonic Anhydrase II with Pyridinium Salt 2a (Bovine Carbonic Anhydrase II-2a Conjugate). […] The reaction mixture was directly analyzed by LC/MS using method A and was estimated to have proceeded with 34% conversion and a 4.5:1 mono:di labeled ratio. […]
General Trypsin Digest Protocol B: For non-cystine bridged labeled proteins, a standard trypsin digest was modified as follows. […] The digested mixture was analyzed directly by LC/MS and MS/MS using method C. […]

SMILES: COC(=O)N(C)[n+]1c(C)cc(-c2ccc3cc(OC)ccc3c2)cc1C [pyridinium salt 2a, 1-((methoxycarbonyl)(methyl)amino)-4-(6-methoxynapthalen-2-yl)-2,6-dimethylpyridin-1-ium tetrafluoroborate]
- Modified Trp [1]: Trp-31
- Modified Trp [2]: Trp-243
